Assay [1] concerns SAg-specific hybridoma cells with fresh or fixed APC (VAVY) cells, MHCII. Briefly: Antigen processing independent presentation system (APIPS) assay. It is filed as cell-based, DR3tg mice. To be noted: 10 or 25 µg/ml peptide, IL-2 ELISA after 48 h. How it is done:
FIG. 10: Variants of peptide 15N3K are apitopes. The ability of variants of the 15N3K peptide to behave as apitopes (i.e. bind to an MHCII molecule and be presented to a T cell by an antigen-presenting cell without undergoing antigen processing) was tested using an APIPS assay. DR3tg mice were immunised with SAg and hybridoma’s were generated. 5*10^4 SAg-specific hybridoma cells were cultured with 5*10^4 fresh or fixed commercial APC (VAVY) cells. Cultures were stimulated with 10 or 25 µg/ml of peptide, as indicated in the graph. T cell activation was measured by IL-2 ELISA on supernatants collected after 48 h. The graph represents the mean of duplicate measurements ± SEM.
Apitopes (Antigen Processing-Independent epiTOPES) are capable of binding to an MHCII molecule and stimulating a response from SAg-specific T cells without further antigen processing. Variants of peptide 15N3K (SEQ ID NO: 3) were tested for their ability to bind to an MHCII molecule and be presented to a T cell hybridoma without further antigen processing in an in vitro antigen processing independent presentation system (APIPS) assay. In other words, peptides consisting of parts of peptide 15N3K and peptides with various degrees of sequence identity with peptide 15N3K were tested for their ability to behave as apitopes.
All but three of the peptides are apitopes.
Antigen-specific hybridoma clones were tested for their reactivity to the peptides, presented by fixed or not fixed (fresh) cells (APCs). 5x10^4 cells were cultured with 10 µg/ml and 25 µg/ml peptide and 5x10^4 fixed or fresh APCs. To fix APCs, cells were incubated with 0.5% paraformaldehyde (Merck, Darmstadt, Germany) (pH7) for 5 min at room temperature (RT). The fixation reaction was stopped by adding 0.4 M glycine (Sigma-Aldrich) and washing the cells in RPMI-10% FCS. After 48 h, antigen-induced IL-2 production was measured by ELISA (R&D Systems, Abingdon, UK).
(In general: An ELISA detects its analyte on a solid surface through an enzyme-linked reagent.)

The target in assay [2] is T1, HLA-DR2 (DRA*0101 and DRB1*1501) on CD11c+ dendritic cells of DR2tg mice (human, UniProt P01903 26-254; P01911 30-266).
T1 construct: whole, on cells; DR2tg mice express the HLA-DRB1*1501 molecule but not the mouse MHC class II molecule; also called MHC class II; MHC II molecules
In words: in vivo MHC class II loading assay, DR2tg mice, read out by IFNy of peptide-specific CD4+ T cells. How it is done: FIG. 1: Peptide 9K1K is correctly loaded on MHC class II in vivo. Response of peptide-specific CD4+ T cells towards peptide loaded in vivo on dendritic cells is shown. HLA-DR2-transgenic mice were injected subcutaneously with 100 µg of 9K1K peptide. 2 h post injection, spleens were dissected and CD11 c+ cells (dendritic cells) were isolated. These CD11c+ cells were co-cultured with peptide-specific CD4+ cells for 72 h at 37° C. IFNy was measured in the supernatant of these cultures to evaluate the response to peptide by the CD4+ T cells. (* p<0.05 Mann-Whitney U-test)
DR3tg or DR2tg mice were injected with 100 µg of peptide in 100 µl PBS subcutaneously (s.c.) in the flank. Control animals received a s.c. injection of 100 µl PBS. After 2 hours, spleens were harvested and single-cell suspensions were prepared. CD11 c+ cells were positively selected using CD11c microbeads according to the manufacturer’s instructions (Miltenyi Biotec, Bergisch Gladbach, Germany). Average purities of >92% were reached. […] After 72 hours, supernatant of these co-cultures was collected and CD4+ T cell activation was analysed by IFNy ELISA (R&D Systems, Abingdon, UK). In a parallel experiment, CD4+ T cell responses towards peptide added in vitro were assessed to make sure the T cells recognize the peptides presented by the CD11 c+ cells.

The target of assay [3] is T2, HLA-DR3 (HLA-DRA and DRB1*0301) on CD11c+ dendritic cells of DR3tg mice (human, UniProt P01903 26-254; P79483 30-266).
T2 construct: whole, on cells; DR3tg mice express the HLA-DRB1*0301 molecule but not the mouse MHC-II molecule; also called MHC class II; MHC II molecules
T2 MHC II alpha: not shown
T2 MHC II beta: not shown
Briefly: in vivo MHC class II loading assay, DR3tg mice, read out by IFNy of peptide-specific CD4+ T cells. How it is done: FIG. 2: Peptide 17JK is correctly loaded on MHC class II in vivo. Response of peptide-specific CD4+ T cells towards peptide loaded in vivo on dendritic cells is shown. HLA-DR3-transgenic mice were injected subcutaneously with 100 µg of 17JK peptide. 2 h post injection, spleens were dissected and CD11c+ cells (dendritic cells) were isolated. These CD11c+ cells were co-cultured with peptide-specific CD4+ cells for 72 h at 37° C. IFNy was measured in the supernatant of these cultures to evaluate the response to peptide by the CD4+ T cells. (*** p<0.001 Mann-Whitney U-test)
FIG. 3: Peptide 15N3K is correctly loaded on MHC class II in vivo. Response of peptide-specific CD4+ T cells towards peptide loaded in vivo on dendritic cells is shown. HLA-DR3-transgenic mice were injected subcutaneously with 100 µg of 15N3K peptide. 2h post injection, spleens were dissected and CD11c+ cells (dendritic cells) were isolated. These CD11c+ cells were co-cultured with peptide-specific CD4+ cells for 72 h at 37° C. IFNy was measured in the supernatant of these cultures to evaluate the response to peptide by the CD4+ T cells. (*** p<0.001 Mann-Whitney U-test)
DR3tg or DR2tg mice were injected with 100 µg of peptide in 100 µl PBS subcutaneously (s.c.) in the flank. Control animals received a s.c. injection of 100 µl PBS. After 2 hours, spleens were harvested and single-cell suspensions were prepared. […]

Data on 16 molecules can be found in patent publication US20230203126A1, “A COMPOSITION COMPRISING S-ARRESTIN PEPTIDES” (WORG PHARMACEUTICALS (HANGZHOU) CO., LTD., priority 2019, published 2023).

Regarding “VIFKKISRDKSV (H-VIFKKISRDKSV-NH2) [HIP-15B3, variant of peptide 15N3K]”, the Apitope entry in assay [1] was “No”. With “VIFKKISRDKSVTIYL (H-VIFKKISRDKSVTIYL-NH2) [HIP-15BC, variant of peptide 15N3K]”, in assay [1], the Apitope entry was “Yes”. For “ISRDKSVTIYLG (H-ISRDKSVTIYLG-NH2) [HIP-15G3, variant of peptide 15N3K]”, the Apitope entry in assay [1] is listed as “No”.

Take “KKKKKISRDKSVTIYLGKKK (H-KKKKKISRDKSVTIYLGKKK-NH2) [HIP-15E1-KKK, variant of peptide 15N3K]”: the Apitope entry in assay [1] is on record as “Yes”. For the molecule “KKISRDKSVTIYLG (H-KKISRDKSVTIYLG-NH2) [HIP-15E1, variant of peptide 15N3K]”, in assay [1], the Apitope result is reported as “Yes”. Turning to “MAASGKTSKSEPNHVIFKKISRDKSV TIYLGNRDYIDHVSQV (H-MAASGKTSKSEPNHVIFKKISRDKSVTIYLGNRDYIDHVSQV-NH2) [HIP-115, variant of peptide 15N3K]”, the Apitope result in assay [1] is reported as “Yes”. As for “KKKVIFKKISRDKSVTIKKK (H-KKKVIFKKISRDKSVTIKKK-NH2) [HIP-15B1-KKK, variant of peptide 15N3K]”, the Apitope entry in assay [1] is given as “Yes”. As for “KKKVIFKKISRDKSVKKK (H-KKKVIFKKISRDKSVKKK-NH2) [HIP-15B3-KKK, variant of peptide 15N3K]”, the Apitope result in assay [1] was “No”.

Regarding “KKKISRDKSVTIYLGKKK (H-KKKISRDKSVTIYLGKKK-NH2) [HIP-15G3-KKK, variant of peptide 15N3K]”, the Apitope entry in assay [1] is “Yes”. In the case of “VIFKKISRDKSVTI (H-VIFKKISRDKSVTI-NH2) [HIP-15B1, variant of peptide 15N3K]”, in assay [1], the Apitope entry is on record as “Yes”.

For the molecule “IFKKISRDKSVTIYLG (H-IFKKISRDKSVTIYLG-NH2) [HIP-15CD, variant of peptide 15N3K]”, in assay [1], the Apitope entry was “Yes”. The same measure, in the same setting: the entry for “KKKIFKKISRDKSVTIYLGKKK (H-KKKIFKKISRDKSVTIYLGKKK-NH2) [HIP-15CD-KKK, variant of peptide 15N3K]” is “Yes”; for “KKKVIFKKISRDKSVTIYLKKK (H-KKKVIFKKISRDKSVTIYLKKK-NH2) [HIP-15BC-KKK, variant of peptide 15N3K]” it is “Yes”.

B1: 9K1K (peptide)
peptide: H-KKKAFVEQVANVVLKKK-NH2
notes: Synthetic S-Ag (S-arrestin) derived peptide with KKK added at both ends
For the molecule B1, the binding result in assay [2] is on record as “binds”.

B2: 17JK (peptide)
peptide: H-KKKLTFRRDLYFSRVQVYKKK-NH2
notes: Synthetic S-Ag derived peptide with KKK added at both ends
For the molecule B2, the binding result in assay [3] is reported as “binds”.

B3: 15N3K (peptide)
peptide: H-KKKVIFKKISRDKSVTIYLGKKK-NH2
notes: as for B2
For B3, the binding result in assay [3] is “binds”.
